Reference: ChEMBL document CHEMBL5614376, “Discovery of MT-1207: A Novel, Potent Multitarget Inhibitor as a Promising Clinical Candidate for the Treatment of Hypertension” (J Med Chem, 2024)

Tests used:
Assay type in all cases: functional
Rattus norvegicus [1] = test: Effect on postural hypotension in Sprague-Dawley rat assessed as change in systolic blood pressure at 22 ug/kg, po treated for >30 mins followed by induction of postural hypotension measured 60 secs after postural change (reference value: 127 +/- 10 mmHg); conditions: dose 22 µg/kg, time > 31 min
Rattus norvegicus [2] = test: Effect on postural hypotension in Sprague-Dawley rat assessed as change in systolic blood pressure at 22 ug/kg, po treated for >30 mins followed by induction of postural hypotension measured 40 secs after postural change (reference value: 128 +/- 11 mmHg); conditions: dose 22 µg/kg, time > 30.67 min, 0.5112 h
Rattus norvegicus [3] = test: Effect on postural hypotension in Sprague-Dawley rat assessed as change in systolic blood pressure at 22 ug/kg, po treated for >30 mins followed by induction of postural hypotension measured immediately after postural change (reference value: 131 +/- 9 mmHg); conditions: dose 22 µg/kg, 0.5 h
Rattus norvegicus [4] = test: Effect on postural hypotension in Sprague-Dawley rat assessed as change in systolic blood pressure at 22 ug/kg, po treated for >30 mins followed by induction of postural hypotension measured 10 secs after postural change (reference value: 127 +/- 12 mmHg); conditions: dose 22 µg/kg, time > 30.17 min, 0.5028 h
Rattus norvegicus [5] = test: Effect on postural hypotension in Sprague-Dawley rat assessed as change in systolic blood pressure at 22 ug/kg, po treated for >30 mins followed by induction of postural hypotension measured 5 secs after postural change (reference value: 126 +/- 12 mmHg); conditions: dose 22 µg/kg, time > 30.08 min, 0.5013 h
Rattus norvegicus [6] = test: Effect on postural hypotension in Sprague-Dawley rat assessed as change in systolic blood pressure at 22 ug/kg, po treated for >30 mins followed by induction of postural hypotension measured 20 secs after postural change (reference value: 129 +/- 11 mmHg); conditions: dose 22 µg/kg, time > 30.33 min, 0.5055 h
Rattus norvegicus [7] = test: Effect on postural hypotension in Sprague-Dawley rat assessed as change in systolic blood pressure at 22 ug/kg, po treated for >30 mins followed by induction of postural hypotension measured 3 secs after postural change (reference value: 124 +/- 10 mmHg); conditions: dose 22 µg/kg, time > 30.05 min, 0.5008 h

For `COc1cc2nc(N3CCN(C(=O)c4ccco4)CC3)nc(N)c2cc1OC` [PRAZOSIN], the Activity (Rattus norvegicus [1]) was 74 mmHg, the Activity (Rattus norvegicus [2]) was 74 mmHg and the Activity (Rattus norvegicus [3]) was 95 mmHg. The Activity (Rattus norvegicus [4]) was 75 mmHg, the Activity (Rattus norvegicus [5]) was 77 mmHg and the Activity (Rattus norvegicus [6]) was 75 mmHg. For the same compound, the Activity (Rattus norvegicus [7]) was 81 mmHg.
